# In patent publication US9334257B2, “Methods of purifying and identifying the presence of and levels of procyanidin oligomeric compounds” (The Hershey Company, priority 2012, dated 2016):
# Assay: Partition coefficient of cocoa procyanidin oligomers in the CPC biphasic solvent system
# Assay type: physicochemical
# Conditions: typical CPC runs as described; biphasic ethyl acetate:ethanol:water (6:1:5), ascending mode; unfermented cocoa bean sample of 8.5 grams
# Procedure: A sample is mixed with water and prepared for FCPC with a KROMATON device and rotor. Columns are prepared with biphasic solvent mixture of ethyl acetate:ethanol:water at 6:1:5 ratio. The solvent used can be modified from this ratio by calculating the partition coefficients and comparing to that of the ethyl acetate:ethanol:water example. The FCPC is run in ascending mode for purifying procyanidins, so that the mobile phase is the upper phase in the resting columns.
# These quantities are isolated from an unfermented cocoa bean sample of 8.5 grams. In comparison, with a diol HPLC column, 150×30 mm, injecting about 270 mg of the same sample per run yields only about 25 mg of DP2-4 and less than 1 mg of DP11-12. Clearly, the CPC methods of the invention provide commercially viable methods for producing usable quantities of a range of procyanidin oligomers, especially from cocoa sources.
row,Partition coefficient,SMILES
1,0.63,Oc1cc(O)c2c(c1)O[C@H](c1ccc(O)c(O)c1)[C@H](O)[C@H]2c1c(O)cc(O)c2c1O[C@H](c1ccc(O)c(O)c1)[C@H](O)C2 [procyanidin B2]
2,0.94,Oc1cc(O)c2c(c1)O[C@H](c1ccc(O)c(O)c1)[C@H](O)[C@H]2c1c(O)cc2c(c1O)C[C@@H](O)[C@@H](c1ccc(O)c(O)c1)O2 [procyanidin B5]
3,0.84,Oc1cc(O)c2c(c1)O[C@H](c1ccc(O)c(O)c1)[C@H](O)C2 [epicatechin]
